The record followed here is paper PMC7905942 (ACS Omega, 2021).

Molecules are shown by their SMILES.

Experiment [1] deals with PC3 (prostate cancer) cells. Briefly: SRB cytotoxicity assay, PC3. The class given is cell-based. Conditions: Homo sapiens, 48 h, read-out: Cytotoxicity IC50, PC3. (In general: In SRB staining, fixed cells bind dye roughly in proportion to their protein.)
Experiment [2] concerns NCI-H23 (lung cancer) cells. Briefly: SRB cytotoxicity assay, NCI-H23. The class given is cell-based. The conditions noted are these: Homo sapiens, NCI-H23, 48 h, read-out: Cytotoxicity IC50, NCI-H23.
The subject of experiment [3] is HDAC (Hela cell nuclear extract). The format is biochemical. The conditions noted are these: Hela cell nuclear extract.
Experiment [4] concerns SW620, PC3 and NCI-H23 cancer cell lines. Nature of the experiment: SRB cytotoxicity, range over three human cancer cell lines. The format is cell-based. Conditions: read-out: Cytotoxicity IC50 values (range over cell lines).
Experiment [5] concerns SW620 (colon cancer) cells. Briefly: SRB cytotoxicity assay, SW620. Conditions: Homo sapiens, SW-620, 48 h, read-out: Cytotoxicity IC50, SW620. The class given is cell-based.
The target in experiment [6] is T1, HDAC6 (Homo sapiens, UniProt Q9UBN7).
T1 sequence (Q9UBN7 1-1215): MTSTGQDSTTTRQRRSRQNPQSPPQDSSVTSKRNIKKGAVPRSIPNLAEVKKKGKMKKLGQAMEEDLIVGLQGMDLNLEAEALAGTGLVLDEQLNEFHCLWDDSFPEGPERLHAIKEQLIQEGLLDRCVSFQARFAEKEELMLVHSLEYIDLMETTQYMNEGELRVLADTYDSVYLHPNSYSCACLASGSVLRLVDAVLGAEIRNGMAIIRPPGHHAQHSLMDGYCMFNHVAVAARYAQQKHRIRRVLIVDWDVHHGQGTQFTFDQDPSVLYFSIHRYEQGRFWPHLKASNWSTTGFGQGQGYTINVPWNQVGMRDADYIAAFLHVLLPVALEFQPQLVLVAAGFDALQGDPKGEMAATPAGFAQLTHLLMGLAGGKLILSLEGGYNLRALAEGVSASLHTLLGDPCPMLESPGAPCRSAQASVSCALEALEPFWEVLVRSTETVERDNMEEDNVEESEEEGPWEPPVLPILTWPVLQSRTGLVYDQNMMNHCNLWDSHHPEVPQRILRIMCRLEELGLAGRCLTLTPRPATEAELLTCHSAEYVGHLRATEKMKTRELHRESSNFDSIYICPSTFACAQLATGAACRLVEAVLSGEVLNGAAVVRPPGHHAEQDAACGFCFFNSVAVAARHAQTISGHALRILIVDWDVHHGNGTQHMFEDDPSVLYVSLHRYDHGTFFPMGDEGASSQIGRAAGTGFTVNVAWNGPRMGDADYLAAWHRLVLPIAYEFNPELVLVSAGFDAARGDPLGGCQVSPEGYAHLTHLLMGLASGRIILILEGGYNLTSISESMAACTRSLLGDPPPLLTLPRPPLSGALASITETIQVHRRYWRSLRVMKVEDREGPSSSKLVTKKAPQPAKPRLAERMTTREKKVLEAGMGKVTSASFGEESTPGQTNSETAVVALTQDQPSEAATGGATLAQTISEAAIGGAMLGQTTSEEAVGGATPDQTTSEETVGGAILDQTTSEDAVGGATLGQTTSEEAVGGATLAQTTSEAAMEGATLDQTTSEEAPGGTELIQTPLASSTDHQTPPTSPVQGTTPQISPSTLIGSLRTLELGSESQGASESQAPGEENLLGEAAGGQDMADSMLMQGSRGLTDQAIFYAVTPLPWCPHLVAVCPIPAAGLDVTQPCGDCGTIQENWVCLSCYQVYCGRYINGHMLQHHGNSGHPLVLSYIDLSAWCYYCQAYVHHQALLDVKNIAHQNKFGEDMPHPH
Nature of the experiment: HDAC6 enzyme assay. The format is biochemical.

As to `O=C(/C=C/c1cccc(S(=O)(=O)Nc2ccccc2)c1)NO` [Belinostat, belinostat, reference compound], the 50% inhibitory concentration (IC50) in experiment [1] was determined as 2530 ± 170 nM.

Turning to `CCn1cnc2ccc(/C=C/C(=O)NO)cc2c1=O` [Compound 9a, (E)-3-(3-Ethyl-4-oxo-3,4-dihydroquinazolin-6-yl)-N-hydroxyacrylamide], the concentration for half-maximal inhibition (IC50) was 5787 ± 3 nM in experiment [2] and 3200 to 7040 nM in experiment [4]. The “fold higher HDAC IC50 than that of SAHA” value in experiment [3] is recorded as “approximately 10 fold”.

On to `O=C(/C=C/c1ccc2ncn(CCCl)c(=O)c2c1)NO` [Compound 9b, (E)-3-(3-(2-Chloroethyl)-4-oxo-3,4-dihydroquinazolin-6-yl)-N-hydroxyacrylamide], for which the results for the IC50 in experiment [1], in experiment [5] and in experiment [4] were 3970 ± 391 nM, 4040 ± 53 nM and 3200 to 7040 nM, respectively. In addition, the “fold higher HDAC IC50 than that of SAHA” value in experiment [3] was about 20 fold.

As to `O=C(/C=C/c1ccc2ncn(CCO)c(=O)c2c1)NO` [Compound 9c, (E)-N-Hydroxy-3-(3-(2-hydroxyethyl)-4-oxo-3,4-dihydroquinazolin-6-yl)acrylamide], the results for the IC50 in experiment [1], in experiment [2] and in experiment [5] were 4650 ± 171 nM, 4309 ± 40 nM and 3670 ± 67 nM, respectively.

Turning to `CCCn1cnc2ccc(/C=C/C(=O)NO)cc2c1=O` [Compound 9d, (E)-N-Hydroxy-3-(4-oxo-3-propyl-3,4-dihydroquinazolin-6-yl)acrylamide], the 50% inhibitory concentration (IC50) in experiment [1] was determined as 2870 ± 224 nM; in experiment [2], 1620 ± 74 nM.

For `CCCCn1cnc2ccc(/C=C/C(=O)NO)cc2c1=O` [Compound 9e, (E)-3-(3-Butyl-4-oxo-3,4-dihydroquinazolin-6-yl)-N-hydroxyacrylamide], the IC50 in experiment [1] worked out at 1689 ± 14 nM; in experiment [2], 1450 ± 15 nM; in experiment [5], 1960 ± 103 nM.

As for `O=C(/C=C/c1ccc2ncn(CC3CCCC3)c(=O)c2c1)NO` [Compound 9f, (E)-3-(3-(Cyclopentylmethyl)-4-oxo-3,4-dihydroquinazolin-6-yl)-N-hydroxyacrylamide], the values for the IC50 in experiment [1] and in experiment [2] were 1220 ± 100 nM and 952 ± 29 nM, respectively.

For `O=C(/C=C/c1ccc2ncn(CC3CCCCC3)c(=O)c2c1)NO` [Compound 9g, (E)-3-(3-(Cyclohexylmethyl)-4-oxo-3,4-dihydroquinazolin-6-yl)-N-hydroxyacrylamide], the IC50 in experiment [1] is 997 ± 18 nM; in experiment [2], 1291 ± 3 nM.

Consider `O=C(/C=C/c1ccc2ncn(Cc3ccccc3F)c(=O)c2c1)NO` [Compound 9i, (E)-3-(3-(2-Fluorobenzyl)-4-oxo-3,4-dihydroquinazolin-6-yl)-N-hydroxyacrylamide], for which the IC50 is 659 ± 20 nM in experiment [2] and 639 to 1120 nM in experiment [4].

In the case of `O=C(/C=C/c1ccc2ncn(Cc3cccc(F)c3)c(=O)c2c1)NO` [Compound 9j, (E)-3-(3-(3-Fluorobenzyl)-4-oxo-3,4-dihydroquinazolin-6-yl)-N-hydroxyacrylamide], the results for the IC50 in experiment [1], in experiment [2] and in experiment [5] were 1280 ± 13 nM, 1669 ± 5 nM and 2060 ± 58 nM, respectively.

Take `O=C(/C=C/c1ccc2ncn(Cc3ccc(F)cc3)c(=O)c2c1)NO` [Compound 9k, (E)-3-(3-(4-Fluorobenzyl)-4-oxo-3,4-dihydroquinazolin-6-yl)-N-hydroxyacrylamide]: the figures for the IC50 in experiment [1], in experiment [2] and in experiment [5] were 1040 ± 13 nM, 1370 ± 72 nM and 1900 ± 55 nM, respectively.

Consider `O=C(/C=C/c1ccc2ncn(Cc3ccc(Cl)cc3)c(=O)c2c1)NO` [Compound 9l, (E)-3-(3-(4-Chlorobenzyl)-4-oxo-3,4-dihydroquinazolin-6-yl)-N-hydroxyacrylamide], for which the IC50 in experiment [1] was found to be 1370 ± 30 nM; in experiment [2], 1660 ± 28 nM.

For the compound `Cc1ccc(Cn2cnc3ccc(/C=C/C(=O)NO)cc3c2=O)cc1` [Compound 9m, (E)-N-Hydroxy-3-(3-(4-methylbenzyl)-4-oxo-3,4-dihydroquinazolin-6-yl)acrylamide], the figures for the concentration for half-maximal inhibition (IC50) in experiment [1] and in experiment [2] were 1260 ± 26 nM and 1380 ± 30 nM, respectively.

As for `CCn1cnc2cc(/C=C/C(=O)NO)ccc2c1=O` [Compound 10a, (E)-3-(3-Ethyl-4-oxo-3,4-dihydroquinazolin-7-yl)-N-hydroxyacrylamide], the IC50 stood at 1681 ± 8 nM in experiment [1], 80 nM in experiment [6] and 2350 ± 56 nM in experiment [2].

`O=C(/C=C/c1ccc2c(=O)n(CCCl)cnc2c1)NO` [Compound 10b, (E)-3-(3-(2-Chloroethyl)-4-oxo-3,4-dihydroquinazolin-7-yl)-N-hydroxyacrylamide]: the IC50 came out at 5550 ± 231 nM in experiment [1], 322 ± 13 nM in experiment [6] and 7660 ± 691 nM in experiment [2].

In the case of `O=C(/C=C/c1ccc2c(=O)n(CCO)cnc2c1)NO` [Compound 10c, (E)-N-Hydroxy-3-(3-(2-hydroxyethyl)-4-oxo-3,4-dihydroquinazolin-7-yl)acrylamide], the values for the IC50 in experiment [1] and in experiment [6] were 5050 ± 399 nM and 96 ± 6 nM, respectively.

Take `CCCn1cnc2cc(/C=C/C(=O)NO)ccc2c1=O` [Compound 10d, (E)-N-Hydroxy-3-(4-oxo-3-propyl-3,4-dihydroquinazolin-7-yl)acrylamide]: the values for the IC50 in experiment [1], in experiment [6] and in experiment [2] were 1500 ± 135 nM, 48 ± 2 nM and 1900 ± 53 nM, respectively.

Turning to `CCCCn1cnc2cc(/C=C/C(=O)NO)ccc2c1=O` [Compound 10e, (E)-3-(3-Butyl-4-oxo-3,4-dihydroquinazolin-7-yl)-N-hydroxyacrylamide], the concentration for half-maximal inhibition (IC50) in experiment [1] is 2860 ± 94 nM; in experiment [6] it was 29 nM; in experiment [2] it was 2749 ± 16 nM; in experiment [5], 3685 ± 27 nM.

Consider `O=C(/C=C/c1ccc2c(=O)n(CC3CCCC3)cnc2c1)NO` [Compound 10f, (E)-3-(3-(Cyclopentylmethyl)-4-oxo-3,4-dihydroquinazolin-7-yl)-N-hydroxyacrylamide], for which the IC50 was determined as 22 nM in experiment [6], 3160 ± 213 nM in experiment [2] and 3210 ± 83 nM in experiment [5].

`O=C(/C=C/c1ccc2c(=O)n(CC3CCCCC3)cnc2c1)NO` [Compound 10g, (E)-3-(3-(Cyclohexylmethyl)-4-oxo-3,4-dihydroquinazolin-7-yl)-N-hydroxyacrylamide]: in experiment [1], the IC50 amounted to 2540 ± 26 nM. In addition, the “fold lower HDAC6 IC50 than IC50 in Hela nuclear extract assay” value in experiment [6] (HDAC6 vs total HDAC extract) worked out at 10 fold.

Take `O=C(/C=C/c1ccc2c(=O)n(Cc3ccccc3)cnc2c1)NO` [Compound 10h, (E)-3-(3-Benzyl-4-oxo-3,4-dihydroquinazolin-7-yl)-N-hydroxyacrylamide]: the half-maximal inhibitory concentration (IC50) in experiment [1] was 1320 ± 25 nM; in experiment [6], 40 ± 1 nM; in experiment [2], 1180 ± 15 nM.

As to `O=C(/C=C/c1ccc2c(=O)n(Cc3ccccc3F)cnc2c1)NO` [Compound 10i, (E)-3-(3-(2-Fluorobenzyl)-4-oxo-3,4-dihydroquinazolin-7-yl)-N-hydroxyacrylamide], the figures for the IC50 in experiment [1], in experiment [6] and in experiment [2] were 1950 ± 66 nM, 25 ± 1 nM and 2100 ± 132 nM, respectively.

For the compound `O=C(/C=C/c1ccc2c(=O)n(Cc3cccc(F)c3)cnc2c1)NO` [Compound 10j, (E)-3-(3-(3-Fluorobenzyl)-4-oxo-3,4-dihydroquinazolin-7-yl)-N-hydroxyacrylamide], the IC50 in experiment [1] was determined as 1396 ± 9 nM; in experiment [6], 23 nM; in experiment [2] it was 1914 ± 6 nM.

Regarding `O=C(/C=C/c1ccc2c(=O)n(Cc3ccc(F)cc3)cnc2c1)NO` [Compound 10k, (E)-3-(3-(4-Fluorobenzyl)-4-oxo-3,4-dihydroquinazolin-7-yl)-N-hydroxyacrylamide], the IC50 is 1490 ± 23 nM in experiment [1], 42 ± 1 nM in experiment [6] and 1490 ± 18 nM in experiment [2].

Usually IC50 stands for the concentration that inhibits the measured activity by half.
